Consider one compound from patent US10363251B2, “(+)-morphinans as antagonists of toll-like receptor 9 and therapeutic uses thereof” (Mallinckrodt LLC, priority 2009, dated 2019).

The test system of experiment [1] is cytoplasmic DNA receptor AIM2. As to the kind of experiment: IFN-β up-regulation in plasmacytoid dendritic cells by poly (dA:dT). The class given is cell-based. From the text: TLR9 signalling involves activation of NF-κB and IRF downstream pathways. The (+)-morphinan inhibited both of these pathways following activation of TLR9 (but not activation of TLR4 or other receptors). The type C TLR9 agonist, ODN2395, and the TL4 agonist, LPS, both induce up-regulation of IL-1β in peritoneal macrophages via activation of NF-κB.

A further experiment has as its target T1, TLR9 (Homo sapiens, UniProt Q9NR96).
T1 construct: expressed in transfected cells; host or cells: HEK293
T1 sequence (Q9NR96 26-1032): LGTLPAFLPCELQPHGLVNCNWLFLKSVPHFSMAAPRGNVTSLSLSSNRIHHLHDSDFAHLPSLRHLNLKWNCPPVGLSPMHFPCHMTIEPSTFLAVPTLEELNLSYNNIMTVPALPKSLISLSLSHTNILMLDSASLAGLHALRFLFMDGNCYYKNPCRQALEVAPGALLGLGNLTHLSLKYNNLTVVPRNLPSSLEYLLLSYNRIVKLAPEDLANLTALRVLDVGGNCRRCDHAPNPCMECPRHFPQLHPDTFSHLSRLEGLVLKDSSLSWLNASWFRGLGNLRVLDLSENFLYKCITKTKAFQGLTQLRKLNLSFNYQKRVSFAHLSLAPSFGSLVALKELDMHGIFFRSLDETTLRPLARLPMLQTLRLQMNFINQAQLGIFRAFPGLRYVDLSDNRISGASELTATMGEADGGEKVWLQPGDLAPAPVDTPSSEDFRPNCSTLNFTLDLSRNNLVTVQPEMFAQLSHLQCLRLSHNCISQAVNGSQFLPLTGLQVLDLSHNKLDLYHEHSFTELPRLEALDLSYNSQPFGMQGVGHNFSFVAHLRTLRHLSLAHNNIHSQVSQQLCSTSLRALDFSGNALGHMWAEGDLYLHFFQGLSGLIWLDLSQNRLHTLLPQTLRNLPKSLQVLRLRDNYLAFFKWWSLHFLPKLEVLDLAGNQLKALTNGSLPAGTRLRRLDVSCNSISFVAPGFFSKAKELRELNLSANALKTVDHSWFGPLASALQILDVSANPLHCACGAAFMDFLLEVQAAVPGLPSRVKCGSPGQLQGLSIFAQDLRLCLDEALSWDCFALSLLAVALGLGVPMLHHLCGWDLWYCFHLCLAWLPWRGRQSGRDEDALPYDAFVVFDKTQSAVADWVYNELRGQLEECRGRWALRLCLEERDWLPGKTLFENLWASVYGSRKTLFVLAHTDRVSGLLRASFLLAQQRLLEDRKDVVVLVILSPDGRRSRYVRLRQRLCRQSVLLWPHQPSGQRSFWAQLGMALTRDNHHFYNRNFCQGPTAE
In words: TLR9 screening of (+)-morphinan library, SEAP reporter in HEK293 cells expressing TLR9. The class given is cell-based. The conditions noted are these: activator ODN2006; for OD 650 nm (mean ± sd): control (no activator) 0.14, activator 1.42 OD. A digest of the protocol: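 HEK293 cells expressing TLR9 with an NF-κB-inducible SEAP reporter were preincubated with compound at 10 μM and 100 nM for 30 min at 37 °C, then stimulated with ODN2006. SEAP was read as OD 650 nm after 16-20 h, in triplicate.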

Usually inhibition stands for the change of the read-out against control, counted positive when it falls.

In the case of `CN[C@@H]1CC[C@]2(O)[C@@H]3Cc4ccc(O)c5c4[C@]2(CCN3CC2CC2)[C@@H]1O5` [II-78], the IFN-β up-regulation result in experiment [1] is reported as “this activation was not blocked”. Besides, the “OD 650 nm (mean ± sd)” value is given as 0.14 ± 0.02 OD at TLR9 (100 nM) and 0.11 ± 0.01 OD on TLR9 (10 μM). For the same compound, the inhibition at 0.1 µM at TLR9 (HEK293, read-out: % Inhibition (mean), 100 nM) was 90%. Also, at TLR9 (HEK293, read-out: % Inhibition (mean), 10 μM), the inhibition at 10 µM came to 92%.
